According to patent publication US20250002954A1, “Novel Compound, Use Thereof, and Method for Producing Same, and Compound-Containing Composition, Method for Producing 4-Trehalosamine, and Microorganism” (Microbial Chemistry Research Foundation, priority 2021, published 2025):

How the values were obtained:
[1] = system: autophagy-related transcription factor EB (TFEB) in OVK18 and Mewo cells; test: Elevated expression and nuclear localization of TFEB (western blotting, immunostaining); assay type: cell-based, human; conditions: 50 mM 4-trehalosamine, 100 μM IMCTA-C14 or 100 mM trehalose, 14 hours
Description: Elevated expression and nuclear localization of autophagy-related transcription factor EB (TFEB) when human ovarian cancer cells or human malignant melanoma cells were treated with 4-trehalosamine or trehalose analog were determined by western blotting and immunostaining.
Fractionation of nuclear and cytoplasm was performed in the following manner using buffer that was a modification of the buffer according to the report of Dignam et al. (J. D. Dignam et al., Nucleic Acids Res, 1983, 11 (5), p. 1475-1489).
Human ovarian cancer cells OVK18 (obtained from RIKEN BRC) and human malignant melanoma cells Mewo (JCRB0066) were each inoculated on a 6-well plate at 2×10^5 cells/2 mL/well, and cultured in DMEM culture medium at 37° C. for 48 hours. After that, as with test example 10-1, a half of the culture fluid in each well was taken, and each compound was dissolved so that the final concentration is 50 mM 4-trehalosamine, 50 µM IMCTA-C14, 100 μM IMCTA-C14, or 100 mM trehalose. After dissolving it sufficiently, the cells were returned to the original well and treated at 37° C. for 14 hours. Untreated cells without addition of the compounds were used as control. […]
The protein concentration of each fraction was measured with protein quantification reagent (XL-Bradford, integrale) and the amount of expression of TFEB in each fraction was examined by western blotting. […]

[2] = Starch aging inhibiting effect, enzyme assay 5 (wheat flour gel); conditions: final concentration 10% or 15% (w/w), 48 and 96 hours
Description: Starch aging inhibiting effect was determined in a similar manner to the <Enzyme assay 3> except that potato starch was changed to wheat flour (organic wheat flour, from Kanazawa Daichi) in the “—Preparation of measurement samples—” of the <Enzyme assay 3>. The results for the 10% (w/w) final concentration of the different sugars are shown in FIG. 15I, and the results for the 15% (w/w) final concentration of the different sugars are shown in FIG. 15J.

[3] = Starch aging inhibiting effect, enzyme assay 3 (potato starch gel); conditions: final concentration 10% or 15% (w/w), 48 and 96 hours
Description: Starch aging inhibiting effect was determined in a similar manner to the <Enzyme assay 1> except that the “—Preparation of measurement samples—” and “—Determination of starch aging inhibiting effect—” in the <Enzyme assay 1> were changed to the methods below.
The 4-trehalosamine (4TA) obtained in production example 10, and trehalose (TRH), sucrose (SCR), and glycerol (GOL) were each dissolved in water to a final concentration of 10% (w/w) or 15% (w/w), thus preparing aqueous solutions. Into each of the aqueous solutions containing the different sugars or water as control, potato starch (manufactured by Yoshida Pharmaceutical Company Limited) was mixed to a final concentration of 15% (w/w) and suspended uniformly, and the suspension was aliquoted in 33.3 μL volumes to three tubes. […]
Starch aging inhibiting effect was determined in a similar manner to the “—Determination of starch aging inhibiting effect—” of the <Enzyme assay 1> except that measurement of absorbance at 660 nm was changed to measurement of absorbance at 620 nm in the “—Determination of starch aging inhibiting effect—” of the <Enzyme assay 1>, and that quantification (absorbance measurement) of enzyme reaction and sugar was performed for the 0-hour, 48-hour, and 96-hour samples in the quantification (absorbance measurement) of enzyme reaction and sugar. […]

[4] = Starch aging inhibiting effect, enzyme assay 4 (rice flour gel); conditions: final concentration 10% or 15% (w/w), 48 and 96 hours
Description: Starch aging inhibiting effect was determined in a similar manner to the <Enzyme assay 3> except that potato starch was changed to rice flour (manufactured by OSAWA JAPAN) in the “—Preparation of measurement samples—” of the <Enzyme assay 3>. The results for the 10% (w/w) final concentration of the different sugars are shown in FIG. 15G, and the results for the 15% (w/w) final concentration of the different sugars are shown in FIG. 15H.

N[C@H]1[C@H](O)[C@@H](O)[C@@H](O[C@H]2O[C@H](CO)[C@@H](O)[C@H](O)[C@H]2O)O[C@@H]1CO [4-trehalosamine]
expression and nuclear localization of TFEB [1]: elevated expression and nuclear localization of TFEB | rate of degradation by β-amylase (starch aging inhibiting effect) [2]: significantly high rate of degradation by β-amylase at and after 48 hours compared to the other gels | rate of degradation by β-amylase (starch aging inhibiting effect) [3]: significantly high rate of degradation by β-amylase at and after 48 hours compared to the other gels | rate of degradation by β-amylase (starch aging inhibiting effect) [4]: significantly high rate of degradation by β-amylase at and after 48 hours compared to the other gels
